# Results published in ChEMBL document CHEMBL3046586, “Lethal and sublethal effects of buprofezin and imidacloprid on Bemisia tabaci (Hemiptera: Aleyrodidae)” (2011).
# The source made the active and inactive calls. The calls are words filed in the database; no cut-off is given here.
# Tests used:
# [1] = system: Bemisia tabaci; test: Insecticidal activity against male Bemisia tabaci (sweet potato whitefly) in compound treated cucumber leaves assessed as mortality at 10000 ppm at 25 +/- 1 degC, 70 +/- 5% RH after 48 hr (reference value: 6.3%); assay type: functional
# [2] = system: Bemisia tabaci; test: Insecticidal activity against Bemisia tabaci (sweet potato whitefly) at egg stage in compound treated cucumber leaves assessed as egg hatch at 10000 ppm at 25 +/- 1 degC, 70 +/- 5% RH after 10 days (reference value: 91%); assay type: functional
# [3] = system: Bemisia tabaci; test: Insecticidal activity against Bemisia tabaci (sweet potato whitefly) at egg stage in compound treated cucumber leaves assessed as egg hatch at 8000 ppm at 25 +/- 1 degC, 70 +/- 5% RH after 10 days (reference value: 91%); assay type: functional
# [4] = system: Bemisia tabaci; test: Insecticidal activity against Bemisia tabaci (sweet potato whitefly) at egg stage in compound treated cucumber leaves assessed as egg hatch at 2000 ppm at 25 +/- 1 degC, 70 +/- 5% RH after 10 days (reference value: 91%); assay type: functional
# [5] = system: Bemisia tabaci; test: Insecticidal activity against male Bemisia tabaci (sweet potato whitefly) in compound treated cucumber leaves assessed as mortality at 8000 ppm at 25 +/- 1 degC, 70 +/- 5% RH after 48 hr (reference value: 6.3%); assay type: functional
# [6] = system: Bemisia tabaci; test: Insecticidal activity against male Bemisia tabaci (sweet potato whitefly) in compound treated cucumber leaves assessed as mortality at 2000 ppm at 25 +/- 1 degC, 70 +/- 5% RH after 48 hr (reference value: 6.3%); assay type: functional
# [7] = system: Bemisia tabaci; test: Insecticidal activity against adult female Bemisia tabaci (sweet potato whitefly) in compound treated cucumber leaves assessed as mortality at 10000 ppm at 25 +/- 1 degC, 70 +/- 5% RH after 48 hr (reference value: 9.3%); assay type: functional
# [8] = system: Bemisia tabaci; test: Insecticidal activity against adult female Bemisia tabaci (sweet potato whitefly) in compound treated cucumber leaves assessed as mortality at 8000 ppm at 25 +/- 1 degC, 70 +/- 5% RH after 48 hr (reference value: 9.3%); assay type: functional
# [9] = system: Bemisia tabaci; test: Insecticidal activity against adult female Bemisia tabaci (sweet potato whitefly) in compound treated cucumber leaves assessed as mortality at 2000 ppm at 25 +/- 1 degC, 70 +/- 5% RH after 48 hr (reference value: 9.3%); assay type: functional
# [10] = system: Bemisia tabaci; test: Insecticidal activity against Bemisia tabaci (sweet potato whitefly) at pupae stage in compound treated cucumber leaves assessed as mortality measured as dry larvae and detached from leaf at 25 +/- 1 degC, 70 +/- 5% RH after 7 days; assay type: functional; settings: 168 h
# [11] = system: Bemisia tabaci; test: Insecticidal activity against Bemisia tabaci (sweet potato whitefly) at third instar larvae stage in compound treated cucumber leaves assessed as mortality measured as dry larvae and detached from leaf at 25 +/- 1 degC, 70 +/- 5% RH after 7 days; assay type: functional; settings: 168 h
# [12] = system: Bemisia tabaci; test: Insecticidal activity against Bemisia tabaci (sweet potato whitefly) at second instar larvae stage in compound treated cucumber leaves assessed as mortality measured as dry larvae and detached from leaf at 25 +/- 1 degC, 70 +/- 5% RH after 7 days; assay type: functional; settings: 168 h
# [13] = system: Bemisia tabaci; test: Insecticidal activity against adult female Bemisia tabaci (sweet potato whitefly) in compound treated cucumber leaves assessed as offspring sex ratio at LC25 concentration at 25 +/- 1 degC, 70 +/- 5% RH after 48 hr (Rvb Female/Female + male)= 0.60 no unit); assay type: functional
# [14] = system: Bemisia tabaci; test: Insecticidal activity against adult female Bemisia tabaci (sweet potato whitefly) in compound treated cucumber leaves assessed as longevity at LC25 concentration at 25 +/- 1 degC, 70 +/- 5% RH after 48 hr (reference value: 8.31 days); assay type: functional
# [15] = system: Bemisia tabaci; test: Insecticidal activity against adult female Bemisia tabaci (sweet potato whitefly) in compound treated cucumber leaves assessed as egg hatch at LC25 concentration at 25 +/- 1 degC, 70 +/- 5% RH after 48 hr (reference value: […]); assay type: functional
# [16] = system: Bemisia tabaci; test: Insecticidal activity against adult female Bemisia tabaci (sweet potato whitefly) in compound treated cucumber leaves assessed as laid eggs at LC25 concentration at 25 +/- 1 degC, 70 +/- 5% RH after 48 hr; assay type: functional, organism-based
# [17] = system: Bemisia tabaci; test: Insecticidal activity against Bemisia tabaci (sweet potato whitefly) at first instar larvae stage in compound treated cucumber leaves assessed as mortality measured as dry larvae and detached from leaf at 25 +/- 1 degC, 70 +/- 5% RH after 7 days; assay type: functional; settings: 168 h
# [18] = system: Bemisia tabaci; test: Insecticidal activity against male Bemisia tabaci (sweet potato whitefly) in compound treated cucumber leaves assessed as mortality after 48 hr; assay type: functional
# [19] = system: Bemisia tabaci; test: Insecticidal activity against adult female Bemisia tabaci (sweet potato whitefly) in compound treated cucumber leaves assessed as mortality after 48 hr; assay type: functional
# [20] = system: Bemisia tabaci; test: Insecticidal activity against Bemisia tabaci (sweet potato whitefly) at egg stage in compound treated cucumber leaves assessed as mortality measured as failure to hatch at 25 +/- 1 degC, 70 +/- 5% RH after 10 days; assay type: functional; settings: 240 h
SMILES,LC50 [10],LC50 [11],LC50 [12],Ratio [13],Time [14],Activity [15],Activity [16],LC50 [17],other results
CC(C)N1C(=O)N(c2ccccc2)CS/C1=N\C(C)(C)C [BUPROFEZIN],979 µg/mL,44.7 µg/mL,10.9 µg/mL,0.5,4.85 days,66%,Active,0.99 µg/mL,mortality at 10000 ppm [1]: 19%; Activity [2]: 72%; Activity [3]: 68%; Activity [4]: 88%; mortality at 8000 ppm [5]: 10%; mortality at 2000 ppm [6]: 11.3%; mortality at 10000 ppm [7]: 9.3%; mortality at 8000 ppm [8]: 8%; mortality at 2000 ppm [9]: 8%
O=[N+]([O-])/N=C1\NCCN1Cc1ccc(Cl)nc1 [IMIDACLOPRID],2850 µg/mL,335 µg/mL,85.4 µg/mL,0.56,11.7 days,87.42%,inactive,19.3 µg/mL,"LC50 [18]: 11.8 µg/mL; LC25 [19]: 4.64 ppm; LC50 ([19]; Bemisia tabaci, 48 h): 71.6 µg/mL; LC50 [20]: 151 µg/mL"
